Source: patent publication US8273740B2, “2-sulfanyl-benzoimidazol-1-yi-acetic acid derivatives as CRTH2 antagonists” (Actelion Pharmaceuticals, Ltd., priority 2004, dated 2012)

Experiments:
hCRTH2 receptor [1] = biological target: T1, hCRTH2 receptor (Homo sapiens, UniProt Q9Y5Y4); experiment: CRTH2 membranes radioligand binding assay ({3H}-PGD2); antagonist binding to the CRTH2 receptor; settings: {3H}-PGD2 radioligand binding, membranes of HEK 293 cells expressing recombinant hCRTH2; read-out: hCRTH2 BDG IC50
T1 construct: expressed in transfected cells; host or cells: clonal HEK 293 cell line (membranes)
T1 sequence (Q9Y5Y4 1-395): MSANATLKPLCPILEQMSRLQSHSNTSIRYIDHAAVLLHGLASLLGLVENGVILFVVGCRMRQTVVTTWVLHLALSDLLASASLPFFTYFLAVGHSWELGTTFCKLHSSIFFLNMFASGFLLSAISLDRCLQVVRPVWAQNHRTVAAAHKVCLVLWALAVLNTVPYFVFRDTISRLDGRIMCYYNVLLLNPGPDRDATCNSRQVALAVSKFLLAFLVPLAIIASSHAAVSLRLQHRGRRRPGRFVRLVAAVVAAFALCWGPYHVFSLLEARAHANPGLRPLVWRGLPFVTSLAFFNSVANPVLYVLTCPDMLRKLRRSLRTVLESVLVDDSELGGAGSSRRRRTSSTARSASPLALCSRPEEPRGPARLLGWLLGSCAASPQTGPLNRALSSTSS
Description: Preparation of CRTH2 Membranes and Radioligand Binding Assay:
Cells are detached from culture plates in 5 ml buffer A per plate (5 mM Tris, 1 mM MgCl2x6H2O, 0.1 mM PMSF, 0.1 mM phenanthroline) using a police rubber and transferred into centrifugation tubes and frozen at −80° C. After thawing, the cells are centrifuged at 500 g for 5 min and then resuspended in buffer A. Cells are then fragmented by homogenization with a Polytron homogenizer for 30 s. The membrane fragments are centrifuged at 3000 g for 40 min and resuspended in membranes in buffer B (50 mM Tris, 25 mM MgCl2, 250 mM saccharose, pH 7.4) and aliquots are stored frozen.
Binding assay is performed in a total volume of 250 μl. […] For unspecific binding, PGD2 is added to the reaction mixture at 1 μM final concentration. This binding assay mix is incubated at rt for 90 min and then filtered through a GF/C filter plate. The filter is washed three times with ice cold binding buffer. Then, 40 μl per well Microscint-40 (Packard) are added and the bound radioactivity is quantified by means of Topcount (Packard).

hCRTH2 receptor [2] = biological target: T1, hCRTH2 receptor; experiment: Intracellular calcium mobilization assay (FLIPR), antagonism of prostaglandin D2; assay type: cell-based
Excerpt: A functional assay with cells expressing the human CRTH2 receptor may be used to detect changes in the levels of intracellular calcium concentration following compound treatment. After addition of the compound the cells are challenged with PGD2. […] The relative values of the remaining activity were used to determine IC50 values by curve fitting the data to a single site to a four-parameter logistic sigmoid dose response curve of the equation (A+((B−A)/(1+((C/x)^D)))).
The ability of the compounds to inhibit PGD2 induced change of intracellular calcium levels via CRTH2 activation may be measured by methods known of one skilled in the art or by the method described below in the experimental part.
Intracellular Calcium Mobilization Assay (FLIPR):
Cells are detached from culture dishes using a dissociation buffer (0.02% EDTA in PBS, Gibco) for 1 min, and collected by centrifugation at 200 g at rt for 5 min in assay buffer [equal parts of Hank's BSS (HBSS, Bioconcept) and DMEM (low glucose, without phenol red, Gibco)].
Stock solutions of test compounds are made up at a concentration of 10 mM in DMSO, and serially diluted in assay buffer to concentrations required for inhibition dose response curves. Prostaglandin D2 (Biomol, Plymouth Meeting, Pa.) is used as an agonist.
A FLIPR384 instrument (Molecular Devices) is operated according to the manufacturer's standard instructions, adding 4 μl of test compound dissolved at 10 mM in DMSO and diluted prior to the experiment in assay buffer to obtain the desired final concentration. An assay buffer containing 10 μl of 80 nM prostaglandin D2 (Biomol, Plymouth Meeting, Pa.), supplemented with 0.8% bovine serum albumin (fatty acid content <0.02%, Sigma), is then added to obtain a final concentration of 10 nM and 0.1%, respectively. […] Emission peak values above base level after prostaglandin D2 addition are exported after base line subtraction. Values are normalized to high-level control (no test compound added) after subtraction of base line value (no prostaglandin D2 added). The program XL1fit 3.0 (IDBS) is used to fit the data to a single site dose response curve of the equation (A+((B−A)/(1+((C/x)^D)))) and to calculate the IC50 values.

[3] = HEK-293 cells expressing hCRTH2, agonist prostaglandin D2 10 nM, read-out: hCRTH2 FLIPR IC50

SMILES	IC50 (hCRTH2 receptor [1]) [µM]	IC50 (hCRTH2 receptor [2]) [µM]	IC50 (hCRTH2 receptor [2]; [3]) [µM]
CCCCOC(=O)N(CCCSc1nc2cc([N+](=O)[O-])ccc2n1CC(=O)O)CCc1ccccc1 [{2-[3-(Butoxycarbonyl-phenethyl-amino)-propylsulfanyl]-5-nitro-benzoimidazol-1-yl}-acetic acid]	0.001		
CCCC(=O)N1CCCC(CSc2nc3ccccc3n2CC(=O)O)C1 (racemic)	0.022		
COc1ccc(C(C)=O)cc1CSc1nc2cc(F)ccc2n1C(C)C(=O)O (racemic)	0.013		
CCCCNC(=O)c1ccc(OC)c(CSc2nc3cc(F)ccc3n2CC(=O)O)c1 [[2-(5-Butylcarbamoyl-2-methoxy-benzylsulfanyl)-5-fluoro-benzoimidazol-1-yl]-acetic acid]		0.021	
CC(=O)c1ccc(OCCCO)c(CSc2nc3cc(F)ccc3n2CC(=O)O)c1 [{2-[5-Acetyl-2-(3-hydroxy-propoxy)-benzylsulfanyl]-5-fluoro-benzoimidazol-1-yl}-acetic acid]	0.002		
CCCCC(=O)N(CCCSc1nc2ccccc2n1CC(=O)O)CC(c1ccccc1)c1ccccc1 [(2-{3-[(2,2-Diphenyl-ethyl)-pentanoyl-amino]-propylsulfanyl}-benzoimidazol-1-yl)-acetic acid]	0.015		
CCOC(=O)c1ccc(N(CCCSc2nc3ccccc3n2CC(=O)O)C(=O)CC(c2ccccc2)c2ccccc2)cc1			0.128
CCCCC(=O)N(CCCSc1nc2ccccc2n1CC(=O)O)CCc1ccccc1 [{2-[3-(Pentanoyl-phenethyl-amino)-propylsulfanyl]-benzoimidazol-1-yl}-acetic acid]	0.012		
O=C(O)Cn1c(SCC2CCCN(C(=O)c3cccc(Cl)c3)C2)nc2ccccc21 (racemic)			0.156
O=C(O)Cn1c(SCCC(c2ccccc2)c2ccccc2)nc2ccc([N+](=O)[O-])cc21 [[2-(3,3-Diphenyl-propylsulfanyl)-6-nitro-benzoimidazol-1-yl]-acetic acid]			0.212
CCCCOC(=O)N(CCCSc1nc2ccccc2n1CC(=O)O)CCc1ccccc1	0.01		
COc1ccc(C(C)=O)cc1CSc1nc2ccccc2n1CC(=O)O [[2-(5-Acetyl-2-methoxy-benzylsulfanyl)-benzoimidazol-1-yl]-acetic acid]	0.009		
COc1ccc(C(C)=O)cc1CSc1nc2cc(C=O)ccc2n1CC(=O)O [[2-(5-Acetyl-2-methoxy-benzylsulfanyl)-5-formyl-benzoimidazol-1-yl]-acetic acid]	0.006		
CCOC(=O)c1ccc(N(CCCSc2nc3ccccc3n2CC(=O)O)C(=O)C(c2ccccc2)C2CCCCC2)cc1 (racemic)	0.007		
COC(=O)c1cccc(CSc2nc3cc([N+](=O)[O-])ccc3n2CC(=O)O)c1 [[2-(3-Methoxycarbonyl-benzylsulfanyl)-5-nitro-benzoimidazol-1-yl]-acetic acid]	0.015		0.015
O=C(O)Cn1c(SCC2CCCN(C(=O)c3ccc(Br)cc3)C2)nc2ccccc21 (racemic)	0.018		
COC(=O)c1ccc(OC)c(CSc2nc3ccccc3n2CC(=O)O)c1			0.201
COc1ccc(C(=O)N2CCc3ccccc32)cc1CSc1nc2cc(F)ccc2n1CC(=O)O [{2-[5-(2,3-Dihydro-indole-1-carbonyl)-2-methoxy-benzylsulfanyl]-5-fluoro-benzoimidazol-1-yl}-acetic acid]			0.004
O=C(O)Cn1c(SCC2CCN(C(=O)c3ccc(Br)cc3)C2)nc2cc(F)ccc21 (racemic)	0.023		0.088
CCCC(=O)N1CCCC(CSc2nc3cc(Cl)c(Cl)cc3n2CC(=O)O)C1 (centres unmarked) [[2-(1-Butyryl-piperidin-3-ylmethylsulfanyl)-5,6-dichloro-benzoimidazol-1-yl]-acetic acid]	0.004		0.148
